One experiment deals with T1, Human FAAH (Homo sapiens, UniProt O00519).
T1 construct: made in house
T1 sequence (O00519 32-579 limits assumed): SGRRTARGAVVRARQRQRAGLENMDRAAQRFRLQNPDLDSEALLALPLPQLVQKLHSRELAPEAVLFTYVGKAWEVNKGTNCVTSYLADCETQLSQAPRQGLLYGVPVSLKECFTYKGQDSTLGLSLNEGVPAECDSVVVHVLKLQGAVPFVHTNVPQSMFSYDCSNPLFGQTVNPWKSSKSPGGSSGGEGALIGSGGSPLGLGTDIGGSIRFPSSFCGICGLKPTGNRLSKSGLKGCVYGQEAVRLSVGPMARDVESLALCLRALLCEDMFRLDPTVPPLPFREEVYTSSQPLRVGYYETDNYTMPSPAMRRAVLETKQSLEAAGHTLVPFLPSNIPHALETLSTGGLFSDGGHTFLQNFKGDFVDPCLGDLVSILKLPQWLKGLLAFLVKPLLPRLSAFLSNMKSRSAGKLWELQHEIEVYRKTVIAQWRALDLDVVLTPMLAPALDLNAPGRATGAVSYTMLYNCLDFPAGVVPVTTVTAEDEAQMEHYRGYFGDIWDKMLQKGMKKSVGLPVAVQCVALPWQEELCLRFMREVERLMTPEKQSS
In words: FAAH assay, kinetic analysis of irreversible inhibition (kinact/Ki). The note with it: additional data table, unit inferred, read-out: hFAAH_Kinact/Ki. Type of experiment: biochemical. The procedure: A FAAH assay may be carried out in 384-well clear polystyrene plates in a total volume of 50 μl per well. All percents are by volume. To each well is placed the reaction mixture (40 μl) containing 1-4 nM FAAH, 50 mM NaPi, pH 7.4, 3 mM α-ketoglutarate, 0.15 mM NADH, 7.5 U/ml glutamate dehydrogenase, 2 mM ADP, 1 mM EDTA, and 0.1% Triton X-100 (The concentration shown for each component is the final concentration in the assay). To this mixture is added 5 μl of a compound of Examples 1 to 20 at various concentrations prepared in 50% DMSO (or 5 μl 50% DMSO for controls). This is immediately followed by the addition of 5 μl oleamide (500 μM) dissolved in […] and the reaction mixture is mixed for 1.5 min. The final concentrations of DMSO and EtOH in the assay are each 7.5%. The reactions is then incubated at 30° C. and the absorbance at 340 nm is collected over a period of 90 min with readings taken in 30-second intervals using SpectraMax Plus^384 Microplate Spectrophotometer (Molecular Devices, Sunnyvale, Calif.). Human FAAH used in the assay is prepared as described in the patent application WO 2006/067613. The purity of the enzyme used is preferably greater than 98% based on an analysis by SDS-polyacrylamide gel electrophoresis followed by Coomassie Blue staining.
Initial velocity data (V) is obtained from the slopes of the initial progressive curves. They are plotted as a function of substrate concentration and fit to the Michaelis-Menten equation (1) using Prism (GraphPad Software, Inc., San Diego, Calif.) software to obtain Km and Vmax values.
To obtain potencies of irreversible inhibitors, progressive curves consistent with first order inhibition kinetics (two-step irreversible inhibition mechanism) are fit to equation (2) by nonlinear least squares regressions to determine kobs values at each inhibitor concentration, where [P]t is the absorbance at time t, V0 is a constant related to the steady state rate of the uninhibited reaction, and kobs is the first order rate constant for enzyme inactivation. The inhibitor dissociation constant (Ki) and the first order rate
constant of enzyme inactivation at infinite inhibitor concentration (kinact) are then obtained by fitting the kobs vs. [I] curves to equation (3).

A further experiment deals with T2, rFAAH (Rattus norvegicus, UniProt P97612).
T2 sequence (P97612 1-579): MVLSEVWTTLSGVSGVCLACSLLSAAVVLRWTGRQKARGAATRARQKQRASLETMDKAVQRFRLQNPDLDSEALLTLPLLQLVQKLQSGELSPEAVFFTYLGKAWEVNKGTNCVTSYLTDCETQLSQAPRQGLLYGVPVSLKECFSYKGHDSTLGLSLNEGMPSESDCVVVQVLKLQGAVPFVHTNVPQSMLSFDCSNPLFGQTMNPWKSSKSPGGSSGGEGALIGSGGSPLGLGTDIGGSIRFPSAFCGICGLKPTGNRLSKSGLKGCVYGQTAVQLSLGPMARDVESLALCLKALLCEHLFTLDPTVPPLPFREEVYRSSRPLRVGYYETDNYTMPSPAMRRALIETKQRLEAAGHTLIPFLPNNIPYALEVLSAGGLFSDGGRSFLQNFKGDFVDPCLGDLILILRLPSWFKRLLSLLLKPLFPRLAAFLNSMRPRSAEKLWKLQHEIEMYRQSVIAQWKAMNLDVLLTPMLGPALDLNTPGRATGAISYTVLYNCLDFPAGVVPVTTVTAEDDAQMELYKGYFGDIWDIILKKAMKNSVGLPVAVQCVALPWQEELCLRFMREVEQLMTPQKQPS
In words: FAAH assay, rFAAH kobs/I. To be noted: additional data table, unit not given. Type of experiment: biochemical.

For the compound `Cc1noc(NC(=O)N2CCC(=Cc3cccc(OCCC(C)C)c3)CC2)c1C` [N-(3,4-dimethylisoxazol-5-yl)-4-[3-(3-methylbutoxy)benzylidene]piperidine-1-carboxamide], the kinact/KI on Human FAAH came to 7710 M⁻¹ s⁻¹. Further, the “FAAH_KINACTR:rFAAH:kobs/I” value on rFAAH is reported as 2590.
Consider `Cc1noc(NC(=O)N2CCC(=Cc3cccc(OCC(C)CC(F)(F)F)c3)CC2)c1C` (stereo not drawn) [N-(3,4-dimethylisoxazol-5-yl)-4-[3-(4,4,4-trifluoro-2-methylbutoxy)benzylidene]piperidine-1-carboxamide], for which, at Human FAAH, the kinact/KI came to 5190 M⁻¹ s⁻¹. At rFAAH, the “FAAH_KINACTR:rFAAH:kobs/I” value came to 2530.
In the case of `Cc1noc(NC(=O)N2CCC(=Cc3cccc(OCCCC(F)(F)F)c3)CC2)c1C` [N-(3,4-dimethylisoxazol-5-yl)-4-[3-(4,4,4-trifluorobutoxy)benzylidene]piperidine-1-carboxamide], the kinact/KI at Human FAAH came out at 12900 M⁻¹ s⁻¹. Besides, the “FAAH_KINACTR:rFAAH:kobs/I” value at rFAAH amounted to 1540.
`Cc1noc(NC(=O)N2CCC(=Cc3cccc(OCCc4cccc(F)c4)c3)CC2)c1C` [N-(3,4-dimethylisoxazol-5-yl)-4-{3-[2-(3-fluorophenyl)ethoxy]benzylidene}piperidine-1-carboxamide]: the kinact/KI on Human FAAH was found to be 12100 M⁻¹ s⁻¹. Further, the “FAAH_KINACTR:rFAAH:kobs/I” value on rFAAH is recorded as 9280.
In the case of `Cc1cccc(OCCOc2cccc(C=C3CCN(C(=O)Nc4onc(C)c4C)CC3)c2)c1` [N-(3,4-dimethylisoxazol-5-yl)-4-{3-[2-(3-methylphenoxy)ethoxy]benzylidene}piperidine-1-carboxamide], on Human FAAH, the kinact/KI worked out at 13900 M⁻¹ s⁻¹. Further, at rFAAH, the “FAAH_KINACTR:rFAAH:kobs/I” value turned out to be 7840.
The like results for `Cc1noc(NC(=O)N2CCC(=Cc3cccc(OCCc4ccc(F)cc4)c3)CC2)c1C` [N-(3,4-dimethylisoxazol-5-yl)-4-{3-[2-(4-fluorophenyl)ethoxy]benzylidene}piperidine-1-carboxamide] were, in that order, 12800 M⁻¹ s⁻¹ and 7550.
The like results for `Cc1ncsc1CCOc1cccc(C=C2CCN(C(=O)Nc3onc(C)c3C)CC2)c1` [N-(3,4-dimethylisoxazol-5-yl)-4-{3-[2-(4-methyl-1,3-thiazol-5-yl)ethoxy]benzylidene}piperidine-1-carboxamide] were, in that order, 4920 M⁻¹ s⁻¹ and 1920.
The like results for `Cc1oncc1NC(=O)N1CCC(=Cc2cccc(OC(C)Cc3ccccc3)c2)CC1` (stereo not drawn) [N-(5-methylisoxazol-4-yl)-4-[3-(1-methyl-2-phenylethoxy)benzylidene]piperidine-1-carboxamide] were, in that order, 2150 M⁻¹ s⁻¹ and 208.
`Cc1oncc1NC(=O)N1CCC(=Cc2cccc(OCC(C)CC(F)(F)F)c2)CC1` (stereo not drawn) [N-(5-methylisoxazol-4-yl)-4-[3-(4,4,4-trifluoro-2-methylbutoxy)benzylidene]piperidine-1-carboxamide]: the kinact/KI on Human FAAH amounted to 3200 M⁻¹ s⁻¹. In addition, on rFAAH, the “FAAH_KINACTR:rFAAH:kobs/I” value is reported as less than 11.5.
Turning to `Cc1oncc1NC(=O)N1CCC(=Cc2cccc(OCCCC(F)(F)F)c2)CC1` [N-(5-methylisoxazol-4-yl)-4-[3-(4,4,4-trifluorobutoxy)benzylidene]piperidine-1-carboxamide], at Human FAAH, the kinact/KI came out at 7410 M⁻¹ s⁻¹. Also, the “FAAH_KINACTR:rFAAH:kobs/I” value at rFAAH is listed as less than 10.0.
In the same order, the values of `Cc1oncc1NC(=O)N1CCC(=Cc2cccc(OCC3CCCCO3)c2)CC1` (stereo not drawn) [N-(5-methylisoxazol-4-yl)-4-[3-(tetrahydro-2H-pyran-2-ylmethoxy)benzylidene]piperidine-1-carboxamide] are 646 M⁻¹ s⁻¹ and less than 11.3.
The like results for `Cc1cccc(OCCOc2cccc(C=C3CCN(C(=O)Nc4cnoc4C)CC3)c2)c1` [N-(5-methylisoxazol-4-yl)-4-{3-[2-(3-methylphenoxy)ethoxy]benzylidene}piperidine-1-carboxamide] were, in that order, 10600 M⁻¹ s⁻¹ and 57.1.
In the same order, the values of `Cc1ncsc1CCOc1cccc(C=C2CCN(C(=O)Nc3cnoc3C)CC2)c1` [N-(5-methylisoxazol-4-yl)-4-{3-[2-(4-methyl-1,3-thiazol-5-yl)ethoxy]benzylidene}piperidine-1-carboxamide] are 903 M⁻¹ s⁻¹ and less than 11.9.
Turning to `O=C(Nc1cnoc1)N1CCC(=Cc2cccc(OCC3CCCCO3)c2)CC1` (stereo not drawn) [N-isoxazol-4-yl-4-[3-(tetrahydro-2H-pyran-2-ylmethoxy)benzylidene]piperidine-1-carboxamide], the kinact/KI on Human FAAH came to 384 M⁻¹ s⁻¹. The “FAAH_KINACTR:rFAAH:kobs/I” value at rFAAH amounted to 18.
The like results for `Cc1ncsc1CCOc1cccc(C=C2CCN(C(=O)Nc3cnoc3)CC2)c1` [N-isoxazol-4-yl-4-{3-[2-(4-methyl-1,3-thiazol-5-yl)ethoxy]benzylidene}piperidine-1-carboxamide] were, in that order, 514 M⁻¹ s⁻¹ and less than 10.0.

Source of the values: patent US20110053982A1, “ETHER BENZYLIDENE PIPERIDINE 5-MEMBERED ARYL CARBOXAMIDE COMPOUNDS USEFUL AS FAAH INHIBITORS” (PFIZER INC., priority 2008, published 2011).
